# Experiments:
# Format in all cases: functional
# Staphylococcus aureus [1] = experiment: Antibacterial activity against methicillin-sensitive Staphylococcus aureus ATCC 29213 after 18 hrs by agar dilution method; details: ATCC 29213, 18 h
# Staphylococcus aureus [2] = experiment: Antibacterial activity against methicillin-sensitive Staphylococcus aureus 16-1 clinical isolate after 18 hrs by agar dilution method; details: 16-1, 18 h
# Staphylococcus aureus [3] = experiment: Antibacterial activity against methicillin-resistant Staphylococcus aureus ATCC 33591 after 18 hrs by agar dilution method; details: ATCC 33591, 18 h
# Staphylococcus aureus [4] = experiment: Antibacterial activity against methicillin-resistant Staphylococcus aureus ATCC 43300 after 18 hrs by agar dilution method; details: ATCC 43300, 18 h
# Staphylococcus aureus [5] = experiment: Antibacterial activity against methicillin-resistant Staphylococcus aureus ATCC BAA-976 after 18 hrs by agar dilution method; details: ATCC BAA-976, 18 h
# Staphylococcus aureus [6] = experiment: Antibacterial activity against methicillin-resistant Staphylococcus aureus ATCC BAA-1708 after 18 hrs by agar dilution method; details: ATCC BAA-1708, 18 h
# Staphylococcus aureus [7] = experiment: Antibacterial activity against methicillin-resistant Staphylococcus aureus 13-18 clinical isolate after 18 hrs by agar dilution method; details: 13-18, 18 h
# Staphylococcus aureus [8] = experiment: Antibacterial activity against methicillin-resistant Staphylococcus aureus 13-23 clinical isolate after 18 hrs by agar dilution method; details: 13-23, 18 h
# Staphylococcus aureus [9] = experiment: Antibacterial activity against methicillin-resistant Staphylococcus aureus 16-30 clinical isolate after 18 hrs by agar dilution method; details: 16-30, 18 h
# Staphylococcus aureus [10] = experiment: Antibacterial activity against methicillin-resistant Staphylococcus aureus 16-34 clinical isolate after 18 hrs by agar dilution method; details: 16-34, 18 h
Structure (SMILES),MIC (Staphylococcus aureus [1]) [µg/mL],MIC (Staphylococcus aureus [2]) [µg/mL],MIC (Staphylococcus aureus [3]) [µg/mL],MIC (Staphylococcus aureus [4]) [µg/mL],MIC (Staphylococcus aureus [5]) [µg/mL],MIC (Staphylococcus aureus [6]) [µg/mL],MIC (Staphylococcus aureus [7]) [µg/mL],MIC (Staphylococcus aureus [8]) [µg/mL],MIC (Staphylococcus aureus [9]) [µg/mL],MIC (Staphylococcus aureus [10]) [µg/mL]
COc1ccc2c(c[n+]3c4c2cc(Cc2ccc(F)cc2F)c2c5c(cc(c24)CC3)OCO5)c1OC.[Br-],4,2,4,8,4,4,4,4,2,2
COc1ccc2c(c[n+]3c4c2cc(Cc2ccc(SC(F)(F)F)cc2)c2c5c(cc(c24)CC3)OCO5)c1OC.[Br-],> 64,> 64,> 64,> 64,> 64,> 64,> 64,> 64,> 64,> 64
COC(=O)C(c1ccccc1)c1cc2c3ccc(OC)c(OC)c3c[n+]3c2c2c(cc4c(c12)OCO4)CC3.[Br-] (stereo not given),> 64,> 64,> 64,> 64,> 64,> 64,> 64,> 64,> 64,> 64
COc1ccc2c(c[n+]3c4c2cc(Cc2ccc(Br)cc2)c2c5c(cc(c24)CC3)OCO5)c1OC.[Br-],16,16,16,32,16,64,16,16,16,16
COc1ccc2c(c[n+]3c4c2cc(Cc2ccccc2)c2c5c(cc(c24)CC3)OCO5)c1OC.[Br-],4,4,4,4,4,8,8,4,4,4
COc1ccc2c(c[n+]3c4c2cc(Cc2ccc(F)c(C(F)(F)F)c2)c2c5c(cc(c24)CC3)OCO5)c1OC.[Br-],32,8,32,32,32,32,16,32,16,64
COc1ccc2c(c[n+]3c4c2cc(Cc2cc(C)cc(C)c2)c2c5c(cc(c24)CC3)OCO5)c1OC.[Br-],4,4,4,8,2,8,4,4,4,4
COc1ccc2c(c[n+]3c4c2cc(Cc2cccc(C)c2)c2c5c(cc(c24)CC3)OCO5)c1OC.[Br-],2,2,4,4,2,4,4,4,2,2
COc1ccc2c(c[n+]3c4c2cc(Cc2ccc(Cl)cc2)c2c5c(cc(c24)CC3)OCO5)c1OC.[Br-],8,8,8,32,8,32,8,8,4,4
COc1ccc2c(c[n+]3c4c2cc(Cc2ccc(C(C)(C)C)cc2)c2c5c(cc(c24)CC3)OCO5)c1OC.[Br-],32,32,64,64,64,64,64,64,64,64
COc1ccc2c(Cc3ccccc3)c3[n+](cc2c1OC)CCc1cc2c(cc1-3)OCO2.[Br-],32,16,64,64,32,32,32,32,64,64
COc1ccc2c(c[n+]3c4c2ccc2c5c(cc(c24)CC3)OCO5)c1OC.[Br-],> 64,> 64,> 64,> 64,> 64,> 64,> 64,> 64,> 64,> 64
COc1ccc2c(c[n+]3c4c2cc(Cc2cc(C(F)(F)F)cc(C(F)(F)F)c2)c2c5c(cc(c24)CC3)OCO5)c1OC.[Br-],> 64,> 64,> 64,> 64,> 64,> 64,> 64,> 64,> 64,> 64
COc1ccc2c(c[n+]3c4c2cc(Cc2ccncc2)c2c5c(cc(c24)CC3)OCO5)c1OC.[Br-],64,64,64,64,64,64,64,32,64,64
COC(=O)c1ccc(Cc2cc3c4ccc(OC)c(OC)c4c[n+]4c3c3c(cc5c(c23)OCO5)CC4)cc1.[Br-],32,64,32,64,32,64,32,64,64,> 64
COc1ccc2c(c[n+]3c4c2cc(Cc2ccc([N+](=O)[O-])cc2)c2c5c(cc(c24)CC3)OCO5)c1OC.[Br-],> 64,> 64,> 64,> 64,> 64,> 64,> 64,> 64,> 64,> 64
COc1ccc2c(c[n+]3c4c2cc(Cc2cccnc2)c2c5c(cc(c24)CC3)OCO5)c1OC.[Br-],16,16,32,> 64,16,32,32,32,32,32
COc1ccc2c(c[n+]3c4c2cc(Cc2ccc(C#N)cc2)c2c5c(cc(c24)CC3)OCO5)c1OC.[Br-],> 64,> 64,> 64,> 64,> 64,> 64,> 64,> 64,> 64,> 64
COc1ccc2c(c[n+]3c4c2cc(Cc2ccccc2[N+](=O)[O-])c2c5c(cc(c24)CC3)OCO5)c1OC.[Br-],8,8,16,32,8,64,8,16,8,8
